Where “and” joins values, the source holds several entries; their conditions need not be identical. Equal values may be shown once. Read-outs that look alike come from different tables or passages of the source.
Experiments:
AcR5b-acylase = experiment: Activity of the AcR5b-acylase in the presence of potential enzyme activators and inhibitors; assay type: biochemical, Arthrobacter aurescens AcR5b; details: for Relative activity (%), EDTA reactivation: preincubated with 1 mM metal cation, then 10 mM EDTA for 30 min
Protocol: 40 μl of the concentrated enzyme solution from example 4d) are mixed with 360 μl of 1 and 10 mM solutions of the potential activators/inhibitors in 100 mM Tris-HCl buffer, pH 8, and incubated at room temperature for 30 min. These preincubated acylase solutions are used as the enzyme source for activity assays in the presence of the activator/inhibitor (see example 8) in the concentration used for the preincubation. The incubation time is 12 min. For the EDTA reactivation the acylase is first preincubated with the metal cation at 1 mM concentration (see above). After adding EDTA to a final concentration of 10 mM in form of a 110 mM solution in 100 mM Tris-HCl, pH 8, the acylase is preincubated a second time for 30 min., before the standard activity assay is performed.

[1] = tested on: Rhodococcus globerulus K1/1 acylase; assay type: biochemical
Protocol: The standard assay for K1/1-acylase activity used for monitoring the purification and for the enzymological characterization is performed by mixing 20 μl of an enzyme sample with 380 μl of a 5.55 mM solution of (S)-2-acetylamino-1-phenyl-4-pentene in 69 mM potassium phosphate buffer, pH 7, and incubating at 23° C. The dilution of the acylase and the incubation time are chosen so that not more than 1.3 mM of product are formed. The reaction is stopped by addition of 800 μl ice cold methanol. After centrifugation for 4 min at 11500 rpm in a Biofuge 15 (Heraeus Sepatech, Osterode, Germany) the supernatant is subjected to quantitative HPLC analysis (see example 1).
27.1. Activity of the Rhodococcus globerulus K1/1 acylase in the presence of potential enzyme activators and inhibitors: […]

Ac6-acylase = Ac6-acylase (Rhodococcus (subgen. Prescottella) equi, UniProt A0A3S5Y3Z2); experiment: Activity of the Ac6-acylase in the presence of potential enzyme activators and inhibitors; assay type: biochemical; details: for activity at 10000 µM: read-out: Relative activity (%)
Sequence of Ac6-acylase (A0A3S5Y3Z2 entry or part of it): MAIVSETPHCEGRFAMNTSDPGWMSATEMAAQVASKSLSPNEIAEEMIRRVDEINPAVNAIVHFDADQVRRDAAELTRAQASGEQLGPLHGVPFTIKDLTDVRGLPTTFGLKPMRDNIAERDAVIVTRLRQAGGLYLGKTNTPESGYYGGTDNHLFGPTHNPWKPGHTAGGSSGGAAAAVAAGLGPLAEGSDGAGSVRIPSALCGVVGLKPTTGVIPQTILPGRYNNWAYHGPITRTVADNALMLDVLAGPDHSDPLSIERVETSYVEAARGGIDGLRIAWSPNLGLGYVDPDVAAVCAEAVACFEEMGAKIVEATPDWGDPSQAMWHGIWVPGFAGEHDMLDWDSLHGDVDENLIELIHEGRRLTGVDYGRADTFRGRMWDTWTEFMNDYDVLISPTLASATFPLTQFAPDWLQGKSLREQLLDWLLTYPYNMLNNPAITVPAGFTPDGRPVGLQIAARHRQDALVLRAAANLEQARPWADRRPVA
Protocol: After an incubation at 30° C. for a time period allowing the liberation of 0 to 3 mM of 1-phenylethylamine 400 μl of ice cooled acetone are added to stop the reaction. The tube is mixed vigorously, put on ice for about 15 min., and then is centrifuged for 4 min at 11500 rpm in a Biofuge 15 (Heraeus Sepatech, Osterode Germany). The supernatant is subjected to quantitative HPLC analysis. If activity assays contain crude extracts of cells grown in the presence of N-acetyl-1-phenylethylamine a control assay without substrate has to be prepared in parallel in order to determine the 1-phenylethylamine content of the crude extract. For HPLC analysis sample volumes of 20 μl are injected onto a RP-8 column (LiChroCART 125-4, LiChrospher 100 RP-8 ([…]), guard column: LiChroCART 4-4, LiChrospher 100 RP-8 ([…]), Merck Co., Darmstadt Germany). The following gradient with a flow rate of 1.25 ml/min. is applied for the separation of the substrate N-acetyl-1-phenylethylamine and the product 1-phenylethylamine:
One unit (U) of acylase activity is defined as the amount of enzyme catalyzing the liberation of 1 μmol of 1-phenylethylamine per minute. The acylase concentration in the samples is calculated according to the following formula: […]
In the presence of various potential enzyme activators and inhibitors activity assays are performed according to the scheme given in example 1 by applying the following conditions and final concentrations:
(S)-N-acetyl-1-phenylethylamine 20 mM
Purified acylase from example 4 c 0.02 U/ml
Incubation time 120 min.

[2] = tested on: acylase from Arthrobacter aurescens Ac5R; experiment: Enzymatic hydrolysis of racemic amides with highly purified acylase from Arthrobacter aurescens Ac5R; assay type: biochemical; details: for Selectivity E: enantioselectivity of the hydrolysis; for e.e. (R)-Amine: formed amine, analysed as acetamide by chiral HPLC; for e.e. (S)-Amide: unconverted amide, chiral HPLC
Protocol: (§1) To 10 ml of a 20 mM solution of each of the racemic amides shown below 1 in 0.1 M phosphate buffer pH 7.0, 5 ml (1.3 units) of the enzyme is added and the solutions are shaken at 100 rpm and 30° C. [drawing 10] [drawing 11]
(§2) When the conversion reaches about 50% (checked by HPLC) the solutions are acidified to pH 2 by adding 1 N HCl and extracted three times with dichloromethane to obtain the unconverted amides. The aqueous layers are neutralized with 1 N NaOH solution and extracted again three times with dichloromethane to recover the formed amines. Both organic phases are dried with MgSO4, filtered and the solvent is distilled off. The amides are used directly for optical purity determinations (HPLC), whereas the obtained amines are converted to the acetamides by adding 100 μl triethylamine and 100 μl acetic anhydride to each sample and then analyzed for the optical purity by "chiral" HPLC.

[3] = biological target: T1, acylase from Rhodococcus equi Ac6 (Rhodococcus (subgen. Prescottella) equi, UniProt A0A3S5Y3Z2); experiment: Enzymatic hydrolysis of racemic amides with partially purified acylase from Rhodococcus equi Ac6; assay type: biochemical; set-up: e.e. (R)-Amide: unit not given here; details: for Selectivity E: enantioselectivity of the hydrolysis; for e.e. (S)-Amine: formed amine, analysed as acetamide; for e.e. (R)-Amide: unconverted amide, chiral HPLC
T1 construct: N-terminus […]
T1 sequence (A0A3S5Y3Z2 1-487): as the sequence (A0A3S5Y3Z2 entry or part of it) above
Protocol: as §1, §2
The experiments are carried out in the same manner as described in example 22.

[4] = compound 1 mM, 30 min preincubation, Tris-HCl pH 8, none = 100
[5] = compound 10 mM, 30 min preincubation, values printed in brackets: precipitates formed, none = 100
[6] = compound 1 mM, 20 mM (S)-N-acetyl-1-phenylethylamine, Tris-HCl pH 8, 120 min, none = 100
[7] = compound 10 mM, values in brackets: precipitates formed during the assay, none = 100

Row | Structure (SMILES) | Relative activity (%) (AcR5b-acylase; [4]) | Relative activity (%) (AcR5b-acylase; [5]) | Relative activity (%) ([1]; compound 1 mM, none = 100) | Relative activity (%) ([1]; compound 10 mM, none = 100) | Relative activity (%) (Ac6-acylase; [6]) | Relative activity (%) (Ac6-acylase; [7]) | other results
1 | O[C@H](CS)[C@H](O)CS (racemic) [Dithiothreitol] | 35% | 5.4% | 112% | 77% | 103% |  | activity at 10000 µM (Ac6-acylase; [7]): 100%
2 | CC(=O)NC(C)c1cccc(C#N)c1 (racemic) [Substrate 2a] |  |  |  |  |  |  | Selectivity E [2]: 60; e.e. (R)-Amine [2]: 91.5; e.e. (S)-Amide [2]: 82.4; Selectivity E [3]: > 500; e.e. (S)-Amine [3]: > 99.9; e.e. (R)-Amide [3]: 85.5
3 | CC(=O)NC(C)c1ccc(C#N)cc1 (racemic) [Substrate 3a] |  |  |  |  |  |  | Selectivity E [2]: 320; e.e. (R)-Amine [2]: 95.0; e.e. (S)-Amide [2]: > 99.9; Selectivity E [3]: > 500; e.e. (S)-Amine [3]: > 99.9; e.e. (R)-Amide [3]: 97.4
4 | CC(=O)NC1CCc2ccccc21 (racemic) [Substrate 5a] |  |  |  |  |  |  | Selectivity E [2]: 180; e.e. (R)-Amine [2]: 95.7; e.e. (S)-Amide [2]: 96.1; Selectivity E [3]: 65; e.e. (S)-Amine [3]: 88.2; e.e. (R)-Amide [3]: 96.7
5 | CC(=O)NC(C)c1ccc2ccccc2c1 (racemic) [Substrate 7a] |  |  |  |  |  |  | Selectivity E [3]: 88; e.e. (S)-Amine [3]: 97.4; e.e. (R)-Amide [3]: 16.4
6 | CC(=O)NC(C)c1ccc2c(c1)OCO2 (racemic) [Substrate 8a] |  |  |  |  |  |  | Selectivity E [2]: 60; e.e. (R)-Amine [2]: 91.5; e.e. (S)-Amide [2]: 82.4; Selectivity E [3]: 280; e.e. (S)-Amine [3]: 97.8; e.e. (R)-Amide [3]: 90.1
7 | CC(=O)NC(C)CCc1ccccc1 (racemic) [Substrate 9a] |  |  |  |  |  |  | Selectivity E [3]: 230; e.e. (S)-Amine [3]: 92.1; e.e. (R)-Amide [3]: > 99.9
8 | [Ba+2].[Cl-].[Cl-] [BaCl2] | 92% | 89% |  |  | 95% | 99% | 
9 | [Ca+2].[Cl-].[Cl-] [CaCl2] | 92% | 88% | 89% | 85% | 90% | 83% | 
10 | [Cl][Cd][Cl] [CdCl2] | 5% | 0% |  |  | 85% | 38% | Relative activity (%), EDTA reactivation (AcR5b-acylase): 79%
11 | O=C(O)CC(O)(CC(=O)O)C(=O)O [Citrate] | 122% | 100% | 113% | 133% | 106% |  | activity at 10000 µM (Ac6-acylase; [7]): 91%
12 | [Cl-].[Cl-].[Co+2] [CoCl2] | 26% | 15% | 97% | 86% | 69% | 83% | Relative activity (%), EDTA reactivation (AcR5b-acylase): 91%
13 | [Cl][Cu][Cl] [CuCl2] | 50% | 0% | 66% | 50% | 88% | 41% | Relative activity (%), EDTA reactivation (AcR5b-acylase): 86%
14 | N[C@@H]1CONC1=O [D-cycloserine] |  |  | 104% | 96% |  |  | 
15 | O=C(O)CN(CCN(CC(=O)O)CC(=O)O)CC(=O)O [EDTA] |  |  |  |  |  |  | Relative activity (%) (AcR5b-acylase): 121; Relative activity (%) (AcR5b-acylase; pH 8): 119; Relative activity (%) [1]: 99 and 89; Relative activity (%) (Ac6-acylase; pH 8): 102; activity at 10000 µM (Ac6-acylase): 104%
16 | [Cl][Fe]([Cl])[Cl] [FeCl3] | 121% | 132% | 101% | 37% | 101% | 92% | 
17 | N[C@@H](CCC(=O)N[C@@H](CS)C(=O)NCC(=O)O)C(=O)O [Glutathion, reduced] |  |  |  |  |  |  | Relative activity (%) (AcR5b-acylase): 112; Relative activity (%) (AcR5b-acylase; pH 8): 113; Relative activity (%) [1]: 104 and 93; Relative activity (%) (Ac6-acylase; pH 8): 106; activity at 10000 µM (Ac6-acylase): 102%
18 | NC(=O)CI [Iodoacetamide] | 96% | 29% | 104% | 67% | 87% |  | activity at 10000 µM (Ac6-acylase; [7]): 32%
19 | OCCS [Mercaptoethanol] | 115% | 69% | 106% | 101% | 104% |  | activity at 10000 µM (Ac6-acylase; [7]): 108%
20 | [Cl-].[Cl-].[Mg+2] [MgCl2] | 103% | 93% | 101% | 87% | 90% | 99% | 
21 | [Cl][Mn][Cl] [MnCl2] | 99% | 60% | 94% | 83% | 87% | 87% | 
22 | [Cl][Ni][Cl] [NiCl2] | 14% | 0% | 87% | 80% | 40% | 10% | Relative activity (%), EDTA reactivation (AcR5b-acylase): 85%
23 | [Cl][Pb][Cl] [PbCl2] | 79% | 9% |  |  | 95% | 99% | Relative activity (%), EDTA reactivation (AcR5b-acylase): 102%
24 | O=S(=O)(F)Cc1ccccc1 [Phenylmethyl-sulfonyl fluoride] | 44% |  |  |  | 0% | 0% | Relative activity (%) ([1]; compound 0.01 mM): 0%; Relative activity (%) ([1]; compound 0.1 mM): 0%; Relative activity (%) (Ac6-acylase; compound 0.01 mM): 17%; Relative activity (%) (Ac6-acylase; compound 0.1 mM): 4.8%
25 | [Cl][V]([Cl])[Cl] [VCl3] | 96% | 106% |  |  | 89% | 94% | 
26 | [Cl-].[Cl-].[Zn+2] [ZnCl2] | < 1.5% | 0% | 66% | 0% | 68% | 47% | Relative activity (%), EDTA reactivation (AcR5b-acylase): 75%
27 | O=C(O)c1cc[c]([Hg+])cc1.[OH-] [p-hydroxy-mercuribenzoate] |  |  | 89% | 96% |  |  | 
